Like-named read-outs stand apart in the source and are kept apart here.
What was measured:
Ralstonia solanacearum [1] = format: in vivo; conditions: tomato, 33 days after transplantation
Ralstonia solanacearum [2] = format: in vivo; conditions: tomato, 17 days after transplantation, 10 mgAI/m^2

Compound: CCOP(=O)(SC(C)CC)SC(C)CC (stereo not shown) [Cadusafos, cadusafos]
- Controlling value (%) (Ralstonia solanacearum [1]; 900 mgAI/m^2, with Paecilomyces fumosoroseus 3 × 10^9 CFU/m^2 (+)): 100%
- Controlling value (%) (Ralstonia solanacearum [1]; 900 mgAI/m^2, without Paecilomyces fumosoroseus (−)): 50%

Compound: O=S(=O)(CCC(F)=C(F)F)c1ncc(Cl)s1 [Fluensulfone, fluensulfone]
- Controlling value (%) (Ralstonia solanacearum [1]; 400 mgAI/m^2, with Paecilomyces fumosoroseus 3 × 10^9 CFU/m^2 (+)): 85%
- Controlling value (%) (Ralstonia solanacearum [1]; 400 mgAI/m^2, without Paecilomyces fumosoroseus (−)): 0%

Compound: O=C(NCCc1ncc(C(F)(F)F)cc1Cl)c1ccccc1C(F)(F)F [Fluopyram, fluopyram]
- Controlling value (%) (Ralstonia solanacearum [1]; 10 mgAI/m^2, with Paecilomyces fumosoroseus 3 × 10^9 CFU/m^2 (+)): 62%
- Controlling value (%) (Ralstonia solanacearum [1]; 10 mgAI/m^2, without Paecilomyces fumosoroseus (−)): 0%

Compound: CCOP(=O)(SC(C)CC)N1CCSC1=O (stereo not shown) [Fosthiazate, fosthiazate]
- Controlling value (%) (Ralstonia solanacearum [1]; 300 mgAI/m^2, with Paecilomyces fumosoroseus 3 × 10^9 CFU/m^2 (+)): 85%
- Controlling value (%) (Ralstonia solanacearum [1]; 300 mgAI/m^2, without Paecilomyces fumosoroseus (−)): 0%

Compound: COP(=S)(OC)Oc1ccc([N+](=O)[O-])c(C)c1 [MEP, MEP (fenitrothion)]
- Controlling value (%) (Ralstonia solanacearum [2]; with Paecilomyces fumosoroseus 3 × 10^9 CFU/m^2 (+)): 75%
- Controlling value (%) (Ralstonia solanacearum [2]; without Paecilomyces fumosoroseus (−)): 0%

Reference: patent US11832615B2 (priority 2013, dated 2023)
